According to US20130183239A1, “ISOTOPIC CARBON CHOLINE ANALOGS” (IMPERIAL COLLEGE, priority 2010, published 2013):
“Also recorded” adds a separate entry of the source.

Experiments:
HCT116 tumors = test: PD0325901 treatment of HCT116 tumor-bearing mice with [18F]D4-FCH-PET; type: in vivo
Experimental: (§1) Size-matched HCT116 tumor bearing mice were randomized to receive daily treatment by oral gavage of vehicle (0.5% hydroxypropyl methylcellulose+0.2% Tween 80) or 25 mg/kg (0.005 mL/g mouse) of the mitogenic extracellular kinase inhibitor, PD0325901, prepared in vehicle. [^18F]D4-FCH-PET scanning was done after 10 daily treatments with the last dose administered 1 h before scanning. […] The results are illustrated in FIGS. 18 and 19.
These studies were performed in a reproducible tumor model system in which treatment outcomes had been previously characterized, i.e., the human colon carcinoma xenograft HCT116 treated with PD0325901 daily for 10 days (Leyton, J., et al., “Noninvasive imaging of cell proliferation following mitogenic extracellular kinase inhibition by PD0325901”, Mol Cancer Ther 2008; 7(9):3112-21). […] All imaging variables decreased after 10 days of drug treatment (P=0.05, FIG. 18). […] To understand the biomarker changes, the intrinsic cellular effect of PD0325901 on D4-FCH-phosphocholine formation was examined by treating exponentially growing HCT116 cells in culture with PD0325901 for 24 h and measuring the 60-min uptake of [^18F]D4-FCH in vitro.

choline kinase A (CHKA) = test: Western blot of choline kinase A expression in HCT116 tumors after PD0325901; type: in vivo, human; conditions: HCT116 tumors at day 10, western blot
Experimental: HCT116 tumors from mice that were injected with PD0325901 (25 mg/kg daily for 10 days, orally) or vehicle were analyzed for CHKA expression by western blotting. β-actin was used as the loading control. (b) Summary densitometer measurements for CHKA expression expressed as a ratio to β-actin. The results are the mean ratios±SE; n=3, * P=0.05.
as §1
To understand further the mechanisms regulating [^18F]D4-FCH uptake with drug treatment, changes in CHKA expression in PD0325901 and vehicle-treated tumors excised after PET scanning were assessed.

HCT116 cells = test: [18F]D4-FCH-phosphocholine formation in HCT116 cells treated with PD0325901; type: cell-based, human; conditions: PD0325901 1 μM for 24 h, 60-min uptake
Experimental: HCT116 cells were grown in T150 flasks in triplicate until they were 70% confluent and then treated with vehicle (1% DMSO in growth medium) or 1 μmol/L PD0325901 in vehicle for 24 h. Cells were pulsed for 1 h with 1.1 MBq of either […]D4—FCH or [^18F]FCH. The cells were washed three times in ice-cold phosphate buffered saline (PBS), scraped into 5 mL PBS, and centrifuged at 500×g for 3 min and then resuspended in 2 mL ice-cold methanol for HPLC analysis as described above for tissue samples. […] Briefly, HCT116 cells were grown in 100 mm dishes in triplicate and incubated with 5.0 MBq [^18F]FCH for 60 min at 37° C. to form the putative [^18F]FCH-phosphate. The cells were washed with 5 mL ice-cold PBS twice and then scraped and centrifuged at 750×g (4° C., 3 min) in 5 mL PBS. Cells were homogenized in 1 mL of 5 mmol/L Tris-HCl (pH 7.4) containing 50% (v/v) glycerol, 0.5 mmol/L MgCl2, and 0.5 mmol/L ZnCl2 and incubated with 10 units bacterial (type III) alkaline phosphatase (Sigma) at 37° C. in a shaking water bath for 30 min to dephosphorylate the [^18F]FCH-phosphate. The reaction was terminated by adding ice-cold methanol. Samples were processed as per plasma above and analyzed by radio-HPLC. Control experiments were done without alkaline phosphatase. […]

CHKA = CHKA expression in exponentially growing cells treated with PD0325901; type: cell-based
[1] = mouse, in vivo, 60 min
Experimental: (§2) Dynamic [^18F]FCH and [^18F]D4-FCH imaging scans were carried out on a dedicated small animal PET scanner, quad-HIDAC (Oxford Positron Systems). The features of this instrument have been described previously (Barthel, H., et al., Cancer Res 2003; 63(13):3791-8). For scanning the tail veins, vehicle- or drug-treated mice were cannulated after induction of anesthesia (isofluorane/O2/N2O). The animals were placed within a thermostatically controlled jig (calibrated to provide a rectal temperature of ˜37° C.) and positioned prone in the scanner. [^18F]FCH or [^18F]D4-FCH (2.96-3.7 MBq) was injected via the tail vein cannula and scanning commenced. Dynamic scans were acquired in list mode format over a 60 min period as reported previously (Leyton, J., et al., Cancer Research 2006; 66(15):7621-9). The acquired data were sorted into 0.5 mm sinogram bins and 19 time frames (0.5×0.5×0.5 mm voxels; 4×15, 4×60, and 11×300 s) for image reconstruction, which was done by filtered back-projection using a two-dimensional Hamming filter (cutoff 0.6). The image data sets were visualized using the Analyze software (version 6.0; Biomedical Imaging Resource, Mayo Clinic). Cumulative images of 30 to 60 min dynamic data were used for visualization of radiotracer uptake and to draw regions of interest. Regions of interest were defined manually on five adjacent tumor regions (each 0.5 mm thickness). Dynamic data from these slices were averaged for each tissue (liver, kidney, muscle, urine, and tumor) and at each of the 19 time points to obtain time versus radioactivity curves. Corresponding whole body time versus radioactivity curves representing injected radioactivity were obtained by adding together radioactivity in all 200×160×160 reconstructed voxels. Tumor radioactivity was normalized to whole-body radioactivity and expressed as percent injected dose per voxel (% ID/vox). The normalized uptake of radiotracer at 60 min (% ID/vox60) was used for subsequent comparisons. The average of the normalized maximum voxel intensity across five slices of tumor % IDvox60max was also use for comparison to account for tumor heterogeneity and existence of necrotic regions in tumor. The area under the curve was calculated as the integral of % ID/vox from 0 to 60 min.

[2] = system: human melanoma SKMEL-28 xenografts; conditions: mouse, in vivo, 60 min
Experimental: as §2

[3] = mouse, in vivo
Experimental: Metabolite analysis of tissues including liver, kidney and tumor by HPLC was also accomplished. […] Choline and its metabolites lack any UV chromophore to permit presentation of chromatograms of the cold unlabelled compound simultaneously with the radioactivity chromatograms.
Liver, kidney, and tumor samples were obtained at 30 min. All samples were snap-frozen in liquid nitrogen. For analysis, samples were thawed and kept at 4° C. immediately before use. To ˜0.2 mL plasma was added ice-cold methanol (1.5 mL). The mixture was then centrifuged (3 min, 15,493×g, 4jC). The supernatant was evaporated to dryness using a rotary evaporator (Heidoloph Instruments) at a bath temperature of 40° C. The residue was suspended in mobile phase (1.1 mL), clarified (0.2 Am filter), and analyzed by HPLC. Liver, kidney, and tumor samples were homogenized in ice-cold methanol (1.5 mL) using an IKA Ultra-Turrax T-25 homogenizer and subsequently treated as per plasma samples (above). All samples were analyzed by radio-HPLC on an Agilent 1100 series HPLC system (Agilent Technologies) equipped with a γ-RAM Model 3 γ-detector (IN/US Systems) and Laura 3 software (Lablogic). The stationary phase comprised a Waters μBondapak C18 reverse-phase column (300×7.8 mm) (Waters, Milford, Mass., USA). Samples were analyzed using a mobile phase comprising solvent A (acetonitrile/water/ethanol/acetic acid/1.0 mol/L ammonium acetate/0.1 mol/L sodium phosphate; 800/127/68/2/3/10) and solvent B (acetonitrile/water/ethanol/acetic acid/1.0 mol/L ammonium acetate/0.1 mol/L sodiumphosphate; 400/400/68/44/88/10) with a gradient of 0% B for 6 min, then 0→100% B in 10 min, 100% B for 0.5 min, 100→0% B in 1.5 min then 0% B for 2 min, delivered at a flow rate of 3 mL/min.

choline oxidase = conditions: 60 min, 1.76 MBq/mL, pH 7
[4] = C3H-Hej, mouse, in vivo, iv, 15 min
[5] = Potassium permanganate oxidation study; type: physicochemical; conditions: 1 hour post-treatment with potassium permanganate, room temperature, radio-HPLC
Text: Reagents and Conditions: i) KMnO4, Na2CO3, H2O, rt.

## O=C(NOC[C@H](O)CO)c1ccc(F)c(F)c1Nc1ccc(I)cc1F [PD0325901]
HCT116 tumors; HCT116 tumors, 10 days of 25 mg/kg daily vs vehicle, 25 mg/kg
  tumor [18F]D4-FCH uptake / retention: significant reduction in tumor [^18F]D4-FCH uptake; also recorded: marked reduction in radiotracer retention
HCT116 tumors; day 10 compared to the pretreatment group, 25 mg/kg daily, oral
  reduction in tumor size: 12.2%
Choline kinase A (CHKA)
  CHKA protein expression in vivo: significant reduction
HCT116 cells
  [18F]D4-FCH-phosphocholine formation: significantly inhibited
CHKA
  CHKA expression in vitro: reduction of CHKA expression

## C[N+](C)(C[18F])CCO [[^18F]FCH, [^18F]Fluoromethylcholine, reference compound]
[1]
  Bladder (urine) % ID/vox60: 6.70±0.71 % ID/vox
  Kidney % ID/vox60: 15.97±4.65 % ID/vox
  Liver radioactivity % ID/vox60: 18.75±4.28 % ID/vox
[2]
  Tumor % ID/vox60: 5.50±0.49 % ID/vox
[3]
  unknown metabolite (possibly the aldehyde intermediate) in liver: not found
[3]; 30 min
  kidney radioactivity as phosphocholine: 31.8±9.8%
  kidney radioactivity in the form of betaine: 53.5±5.3%
  unknown metabolite in kidney: 3.3±0.6%
[3]; iv, 30 min
  form of radioactivity in tumors: significant levels of [^18F]FCH-betaine
Choline oxidase
  parent radiotracer present: 11±8%
[4]
  conversion to betaine metabolite in plasma: ~80%
[5]
  parent compound still present: less than 40%
